According to patent US20050084490A1, “Boroproline compound combination therapy” (Point Therapeutics, Inc., priority 2002, published 2005):

Columns and labels:
[1] = tested on: cytokine and chemokine genes; test: Cytokine and chemokine gene expression (Affymetrix GeneChips) in lymph nodes and WEHI 164 tumors; assay type: in vivo, mice; settings: 5 μg twice daily
Method: (§1) Mice were inoculated with WEHI 164 cells, and starting 2 days later, administered (twice daily) a 5 μg dose of PT-100 or saline (control). RNA extracted from lymph nodes and tumors 2 hours after the first dose of PT-100 on day 4 after tumor inoculation was processed, labeled and hybridized to Affymetrix GeneChips according to the manufacturer's instructions. The log ratio of expression values (PT-100 treated:saline treatment) has been plotted on the ordinates for the cytokine and chemokine genes indicated on the abscissae. Zero values indicate that gene expression was either undetectable or unaffected by PT-100 treatment.
as §1, with “tumors 30 minutes or” for “tumors”, “ratios for” for “ratio of”, “have” for “has”, “cytokine” for “cytokine and chemokine”, “treatment. […]” for “treatment.”

WEHI 164 tumor cells = test: WEHI 164 tumor growth and rejection in euthymic and athymic BALB/c mice; assay type: in vivo; settings: 5 μg dose; for tumor growth (tumor volume): day 2 until day 20 after tumor inoculation
Method: Normal euthymic BALB/c mice (+/+) or athymic BALB/c mice that are congenitally deficient in mature T lymphocytes (nu/nu) were inoculated with WEHI 164 tumor cells. The mice were administered a 5 μg dose of PT-100 or saline (control) from day 2 until day 20 after tumor inoculation and tumor volumes ([…]) were measured at the times indicated on the ordinate. Each treatment group contained 10 replicate mice. […] In euthymic mice, however, tumors were completely rejected by day 20 in 40 per cent of the mice treated with PT-100 whereas tumor rejection was not observed in PT-100 treated athymic mice. In the WEHI 164 tumor model, tumor rejection never occurred spontaneously in control mice. […] The data are consistent with a mechanism of action involving increased production of cytokines and chemokines in mice treated with PT-100 as described in Example 1.

Namalwa cells = test: NOD/SCID mouse model of Burkitt's Non-Hodgkin's Lymphoma; assay type: in vivo, NOD/SCID mice; settings: Namalwa subcutaneous tumors; PT-100 5 μg twice daily day 2 to 20; antibody or normal human IgG 1.5 mg on days 3, 5 and 7
Method: Immunodeficient NOD/SCID mice were inoculated with Namalwa cells derived from a Burkitt's NHL. The human lymphoma cells proliferated in the immunodeficient mice to form solid subcutaneous tumors. Mice were administered 1.5 mg of normal human lgG or 1.5 mg of a human CD20-specific antibody (Rituxan) on each of days 3, 5 and 7 after tumor inoculation. Additional treatments with 5 μg PT-100 administered twice daily from day 2 until day 20 after tumor inoculation were given as indicated in the Figure Legend. The four treatment groups each contained 4 or 5 replicate mice. The data represent mean tumor volumes (±SE). Control treatment with normal human IgG had no effect on tumor growth as compared with saline treatment (data not shown). […] The data support the concept that when combined together, PT-100 and a tumor-specific antibody can have a greater growth inhibitory effect against a tumor than either treatment by itself.

IL-1β, G-CSF and KC [2] = test: ELISA of IL-1β, G-CSF and KC in serum and spleen extracts of BALB/c mice; assay type: in vivo; settings: 20 μg oral, 8 hours after administration
Method: BALB/c mice were orally administered 20 μg PT-100 or saline as indicated on the abscissae. Eight hours after PT-100 administration, IL-1β, G-CSF and KC levels were determined by ELISA (R&D Systems) of serum and extracts of spleens. Cytokine and chemokine levels are indicated on the ordinate as pg/ml or ng/ml of serum, and as pg/mg or ng/mg of protein in each spleen extract as determined by BCA protein assays (Pierce).

IL-1β, G-CSF and KC [3] = test: ELISA of IL-1β, G-CSF and KC in serum and spleen extracts of B6 and IL-1 receptor-1 mutant mice; assay type: in vivo; settings: 40 or 160 μg oral, 8 hours
Method: Normal B6 mice (+/+) and congenic B6.129S7-Illr1^tmllmx mice with a targeted mutation of the IL-1 receptor-1 (−/−) were orally administered 40 or 160 μg of PT-100 or saline as indicated on the abscissae. 8-hours after PT-100 administration, IL-1β, G-CSF and KC levels were determined by ELISA of serum and extracts of spleen. Cytokine and chemokine levels are indicated on the ordinate as pg/ml or ng/ml of serum, and as pg/mg or ng/mg of protein in each spleen extract as determined by BCA protein assays.

[4] = IL-1 receptor-1 mutant (−/−) mice

CC(C)[C@H](N)C(=O)N1CCC[C@H]1B(O)O [PT-100, Val-boroPro]
cytokine and chemokine gene expression in tumor and draining inguinal lymph nodes ([1]; WEHI 164 tumor mice, 2 hours after first dose on day 4 after tumor inoculation): selective induction of cytokine and chemokine gene expression
IL-1β mRNA levels in lymph nodes ([1]; oral, 30 minutes vs 2 hours after first dose on day 4, inguinal lymph nodes draining WEHI 164 tumors): increase in lymph nodes before those of other cytokines
tumor growth (tumor volume) (WEHI 164 tumor cells; athymic BALB/c (nu/nu) mice): significantly inhibited tumor growth
tumor rejection (WEHI 164 tumor cells; athymic BALB/c mice, day 2 until day 20): not observed
mice with tumors completely rejected by day 20 (WEHI 164 tumor cells; euthymic BALB/c mice, day 2 until day 20): 40 per cent of the mice
tumor growth (tumor volume) (WEHI 164 tumor cells; normal euthymic BALB/c (+/+) mice): significantly inhibited tumor growth
tumor growth (mean tumor volume) (Namalwa cells): significantly (p<0.05) inhibited tumor growth
G-CSF levels in serum (IL-1β, G-CSF and KC [2]; serum): increased in both spleen and serum
IL-1β serum levels (IL-1β, G-CSF and KC [2]; serum): without increasing serum levels
KC levels in serum (IL-1β, G-CSF and KC [2]; serum): increased in both spleen and serum
G-CSF levels in spleen (IL-1β, G-CSF and KC [2]; spleen extract): increased in both spleen and serum
IL-1β levels in spleen tissue (IL-1β, G-CSF and KC [2]; spleen extract): increases IL-1β levels in spleen tissue
KC levels in spleen (IL-1β, G-CSF and KC [2]; spleen extract): increased in both spleen and serum
IL-1β levels in the spleen (IL-1β, G-CSF and KC [3]; IL-1 receptor-1 mutant (−/−) mice compared to normal B6 mice): could still increase IL-1β levels in the spleen; but the magnitude of the response was greatly reduced
serum G-CSF levels (IL-1β, G-CSF and KC [3]; [4]): essentially unaffected
serum KC levels (IL-1β, G-CSF and KC [3]; [4]): essentially unaffected
splenic G-CSF levels (IL-1β, G-CSF and KC [3]; [4]): essentially unaffected
splenic KC levels (IL-1β, G-CSF and KC [3]; [4]): essentially unaffected

Rituxan: human CD20-specific antibody (anti-CD20 mAb rituximab) [reference compound]
tumor growth (mean tumor volume) (Namalwa cells): significantly (p<0.05) inhibited tumor growth
